Common to all, as to assay: area under concentration-response curve (viability) (AUC (a.u.)); higher = less active
Settings in all cases: 48 h

One test deals with CU-ACC2. The method, boiled down:
(§1)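 Three adrenocortical carcinoma cell lines were seeded at 500–1,000 cells/well in 5 µL medium in 1,536-well plates. 23 nL of each MIPE 5.0 library compound was added at 11 concentrations. After 48 h (per the protocol name), CellTiter-Glo was added for 15 minutes at room temperature and luminescence was read. Signals were normalised per plate to vehicle and empty-well controls. AC50 and area under the curve came from fitted concentration-response curves, keeping only inhibitory or non-responding curve classes.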

Another test concerns NCI-H295R. The method, boiled down: as §1
The next test has as its system CU-ACC1. In short, it runs like this: as §1

With `CC(=O)N[C@H]1[C@H](O[C@@H]2c3ccc(c(Cl)c3)Oc3cc4cc(c3O[C@@H]3O[C@H](CO)[C@@H](O)[C@H](O)[C@H]3NC(=O)CCCCCCCC(C)C)Oc3ccc(cc3Cl)C[C@H]3NC(=O)[C@H](N)c5ccc(O)c(c5)Oc5cc(O)cc(c5)[C@H](NC3=O)C(=O)N[C@H]4C(=O)N[C@H]3C(=O)N[C@@H]2C(=O)N[C@@H](C(=O)O)c2cc(O)cc(O[C@H]4O[C@H](CO)[C@@H](O)[C@H](O)[C@@H]4O)c2-c2cc3ccc2O)O[C@H](CO)[C@@H](O)[C@@H]1O`, the “area under concentration-response curve” value was found to be 593 in the test on CU-ACC2, 551 with NCI-H295R and 492 in the test with CU-ACC1.

Regarding `Cc1[nH]nc(C(F)(F)F)c1Cc1sc2c(c1C(=O)N1C[C@](C)(O)CO1)c(=O)n(C)c(=O)n2C(C)C`, the “area under concentration-response curve” value in the test on CU-ACC2 came out at 552; with NCI-H295R, 509; in the test with CU-ACC1, 431.

For `O=C(CCCc1ccc2cccnc2n1)NCc1cc(-c2ccc(F)c(C(F)(F)F)c2)no1`, the “area under concentration-response curve” value with CU-ACC2 is 615; with NCI-H295R, 491; in the test with CU-ACC1, 512.

For `N\C1=N\C2=C(N=C[N]2COCCO)C(=O)N1`, the figures for the “area under concentration-response curve” value in the test on CU-ACC2, in the test on NCI-H295R and in the test on CU-ACC1 were 616, 584 and 420, respectively.

As to `COc1cc(Nc2ncc(F)c(Nc3ccc4c(n3)NC(=O)C(C)(C)O4)n2)cc(OC)c1OC`, the entries for the “area under concentration-response curve” value with CU-ACC2, in the test with NCI-H295R and with CU-ACC1 were 612, 563 and 410, respectively.

Take `OC1=CC=C(C=C1)\C2=C(O)\C(=O)C3=C(O2)C=C(O)C=C3O`: the “area under concentration-response curve” value in the test on CU-ACC2 stood at 451; in the test with NCI-H295R, 484; in the test on CU-ACC1, 481.

Consider `CCNCc1nc2c(N)nc3ccccc3c2n1CC(C)(C)O`, for which the entries for the “area under concentration-response curve” value in the test on CU-ACC2, with NCI-H295R and in the test with CU-ACC1 were 556, 516 and 500, respectively.

For the molecule `CN(C)c1ccc(O)c2c1C[C@H]1C[C@H]3[C@H](N(C)C)C(O)=C(C(N)=O)C(=O)[C@@]3(O)C(O)=C1C2=O`, the “area under concentration-response curve” value in the test on CU-ACC2 was determined as 524; in the test on NCI-H295R, 473; in the test with CU-ACC1, 453.

`O=C(c1ccc(C(=O)N2CCC(N3CCCC3)CC2)c(Nc2ccccc2)c1)N1CCC(N2CCCC2)CC1`: the “area under concentration-response curve” value was 601 with CU-ACC2, 556 in the test on NCI-H295R and 493 in the test on CU-ACC1.

In the case of `Cc1csc(NC(=O)c2sc3nc4c(c(C(F)(F)F)c3c2N)CCC4)n1`, the “area under concentration-response curve” value in the test on CU-ACC2 worked out at 494; with NCI-H295R, 472; in the test with CU-ACC1, 441.

With `C[C@@H]\1/N=C(/N)NC(=N1)\N(C)C`, the figures for the “area under concentration-response curve” value in the test with CU-ACC2, with NCI-H295R and with CU-ACC1 were 596, 549 and 407, respectively.

On to `OC1=CC=C(C=C1)\C2=C\OC3=C(C(=CC(=C3)O)O)C2=O`, for which the “area under concentration-response curve” value in the test with CU-ACC2 was 499; in the test on NCI-H295R it was 555; with CU-ACC1 it was 435.

As to `OC[C@H]1O[C@@H]2[C@@H](OC\3=N\C(=N)\C=C/[N@@]23)[C@@H]1O`, the “area under concentration-response curve” value in the test with CU-ACC2 stood at 504; with NCI-H295R it was 472; with CU-ACC1, 488.

Take `CN(C)N(C)C(=O)[C@@]1(Cc2ccccc2)CCCN(C(=O)[C@@H](Cc2c[nH]c3ccccc23)NC(=O)C(C)(C)N)C1`: the “area under concentration-response curve” value with CU-ACC2 amounted to 525; in the test on NCI-H295R it was 514; in the test with CU-ACC1, 522.

For the molecule `COc1ccc2cc(OCC3(C(=O)O)CN(C(=O)c4ccc(F)cc4)C3)ccc2c1`, the “area under concentration-response curve” value with CU-ACC2 is 606; in the test on NCI-H295R, 552; in the test with CU-ACC1 it was 556.

`COc1ccc(CNC(=O)c2cc(-c3cncc(Cl)c3)cnc2-c2ccccn2)nc1OC`: the “area under concentration-response curve” value in the test with CU-ACC2 came to 412; in the test on NCI-H295R, 407; in the test on CU-ACC1 it was 430.

Take `O=C(NOCC(O)CO)c1ccc(F)c(F)c1Nc1ccc(I)cc1F` (stereo not drawn): the entries for the “area under concentration-response curve” value with CU-ACC2, in the test on NCI-H295R and in the test on CU-ACC1 were 459, 488 and 329, respectively.

For the molecule `COC1=CC=C(C=C1)C(=O)C2CCN(CC2)CC(=O)N(CC3CC3)C\C4=N\C5=C(\COCC5)C(=O)N4`, the “area under concentration-response curve” value in the test with CU-ACC2 came to 564; in the test on NCI-H295R, 520; in the test on CU-ACC1, 495.

Regarding `N#C[C@@H]1C[C@@H]2C[C@@H]2N1C(=O)[C@@H](N)C12CC3CC(CC(O)(C3)C1)C2`, the “area under concentration-response curve” value amounted to 598 in the test on CU-ACC2, 517 in the test with NCI-H295R and 500 in the test with CU-ACC1.

For `NC[C@H]1O[C@H](O[C@@H]2[C@H](O)[C@@H](O[C@H]3O[C@H](CO)[C@@H](O)[C@H](N)[C@H]3O)[C@H](N)C[C@@H]2N)[C@H](O)[C@@H](O)[C@@H]1O`, the “area under concentration-response curve” value is 583 with CU-ACC2, 520 in the test on NCI-H295R and 472 with CU-ACC1.

Regarding `O=C1N\C=N/C2=C1C=N[NH]2`, the “area under concentration-response curve” value in the test on CU-ACC2 amounted to 531; in the test on NCI-H295R it was 557; in the test on CU-ACC1 it was 522.

On to `CC(C)C[C@@H](N)[C@H](O)C(=O)N[C@H](C(=O)N[C@H](C(=O)N[C@@H](CC(=O)O)C(=O)O)C(C)C)C(C)C`, for which the “area under concentration-response curve” value came out at 530 in the test on CU-ACC2, 549 in the test with NCI-H295R and 544 in the test with CU-ACC1.

Regarding `OC1=CC2=C(C(=C1)O)C(=O)\C(=C(/O2)C3=CC(=C(O)C(=C3)O)O)O`, the entries for the “area under concentration-response curve” value in the test with CU-ACC2, with NCI-H295R and with CU-ACC1 were 600, 508 and 553, respectively.

For the molecule `N\C1=N\C2=C(N=C[N]2COC(CO)CO)C(=O)N1`, the “area under concentration-response curve” value in the test with CU-ACC2 was 645; in the test on NCI-H295R, 605; in the test with CU-ACC1, 567.

`CCCc1nc(C(C)(C)O)c(C(=O)O)n1Cc1ccc(-c2ccccc2-c2nn[nH]n2)cc1`: the “area under concentration-response curve” value in the test with CU-ACC2 is 521; in the test with NCI-H295R it was 462; in the test on CU-ACC1, 436.

For the molecule `CO[C@@H]1[C@@H](OC(N)=O)[C@@H](O)[C@H](OC2=CC=C3\C(=C(NC(=O)C4=CC=C([O-])C(=C4)CC=C(C)C)/C(=O)OC3=C2C)O)OC1(C)C`, the entries for the “area under concentration-response curve” value with CU-ACC2, in the test with NCI-H295R and with CU-ACC1 were 531, 539 and 535, respectively.

`CC(N[C@H]1C[C@@H]1c1ccccc1)c1ccc2c(c1)OCCO2` (stereo partly drawn): the “area under concentration-response curve” value turned out to be 453 in the test on CU-ACC2, 432 in the test with NCI-H295R and 432 with CU-ACC1.

On to `O=C(O)C(=O)Nc1cccc(-c2nnn[nH]2)c1`, for which the “area under concentration-response curve” value in the test on CU-ACC2 was 645; with NCI-H295R, 553; in the test with CU-ACC1, 547.

For `CNC(=O)[C@H](Cc1ccccc1)NC(=O)[C@H](CC(C)C)[C@H](CSc1cccs1)C(=O)NO`, the “area under concentration-response curve” value in the test on CU-ACC2 was determined as 596; in the test with NCI-H295R, 560; in the test with CU-ACC1, 480.

Consider `CC(=O)Nc1nc(C)c(-c2ccc(Cl)c([S+](=O)([O-])NCCO)c2)s1`, for which the entries for the “area under concentration-response curve” value in the test on CU-ACC2, with NCI-H295R and in the test with CU-ACC1 were 566, 531 and 385, respectively.

Turning to `CC1(C)CCC(C)(C)c2cc(NC(=O)c3ccc(C(=O)O)cc3)ccc21`, the “area under concentration-response curve” value came out at 495 with CU-ACC2, 443 in the test with NCI-H295R and 468 in the test on CU-ACC1.

Take `COC(=O)N(C)c1c(N)nc(-c2nn(Cc3ccccc3F)c3ncccc23)nc1N`: the “area under concentration-response curve” value in the test on CU-ACC2 amounted to 586; in the test with NCI-H295R, 488; in the test with CU-ACC1 it was 488.

As to `CC1=C(C)C\2=C(S1)[N]3C(=NN=C3C(CC(N)=O)\N=C2C4=CC=C(Cl)C=C4)C` (stereo not drawn), the “area under concentration-response curve” value turned out to be 480 with CU-ACC2, 431 with NCI-H295R and 439 in the test on CU-ACC1.

`CC[C@H]1OC(=O)[C@H](C)[C@@H](O[C@H]2C[C@@](C)(OC)[C@@H](O)[C@H](C)O2)[C@H](C)[C@@H](O[C@@H]2O[C@H](C)C[C@H](N(C)C)[C@H]2O)[C@](C)(O)C[C@@H](C)C(=O)[C@H](C)[C@@H](O)[C@]1(C)O`: the “area under concentration-response curve” value in the test on CU-ACC2 is 634; with NCI-H295R, 594; in the test with CU-ACC1, 544.

In the case of `CN1N(C2=CC=CC=C2)C(=O)C(=C1/C3=CC=CC=C3)/C(=O)C4=CC=C(C)C(=C4N)C5=CC=C6N=C(C)C=CC6=C5`, the “area under concentration-response curve” value with CU-ACC2 was determined as 634; in the test on NCI-H295R, 553; with CU-ACC1 it was 531.

Take `Clc1cccc(C(c2ccc3nc[nH]c3c2)n2ccnc2)c1` (stereo not drawn): the “area under concentration-response curve” value with CU-ACC2 amounted to 633; in the test on NCI-H295R it was 491; in the test with CU-ACC1 it was 534.
